Laboratory results reported in publication PMC9949698, “Visible-Light-Controlled Histone Deacetylase Inhibitors for Targeted Cancer Therapy” (Journal of Medicinal Chemistry, 2023).
pIC50: −log10 of the molar value. Like-named read-outs stand apart in the source and are kept apart here.

Tests used:
KG1 cells = assay: KG1 cell viability, CellTiterGlo assay, 50 μM; format: cell-based; conditions: 48 h; for effect on viability when preilluminated: preilluminated (380 or 550 nm)
Protocol: (§1) HDACis have been proposed as a potential therapeutic strategy against cancer stem cells (CSCs).[39],[40] We selected three cell lines that have a strong CSC phenotype (HT29,[41],[42] MCF7[43]−[45] and KG1[46]) and tested the best compounds at 50 μM under dark and illumination conditions.
(§2) HeLa, MCF7, and HT29 cells were maintained in adherent cultures in DMEM supplemented with 10% FBS. KG1 cells were maintained in a suspension culture in IMDM supplemented with 20% FBS.
(§3) Stock solutions of the compounds were heated to 60 or 80 °C to obtain solutions with the maximum amount of the trans isomer (dark). For the “light” solutions, the stock solutions were illuminated with 96-well LED array plates for 3 min at the maximum potency. The solutions were then serially diluted with DMEM to give 20 times the desired final concentration, maintaining DMSO at 10%.
(§4) Cells were seeded in 96-well black flat bottom plates with a clear bottom at a density of 5 × 10^3 cells/well (HeLa) or 1 × 10^4 cells/well (MCF7, HT29, and KG1), in a volume of 95 μL. After 24 h, 5 μL of compound solutions (20×) were added. Cells were incubated for 48 h.
Viability of KG1 cells was determined with a CellTiter-Glo (Promega) assay, according to the manufacturer’s instructions. Briefly, 100 μL of CellTiter-Glo reagent was added to each well, the plates were kept at room temperature for 10 min, and the luminescence was recorded. Viability is expressed as a percentage with respect to the nontreated cells.

MCF7 cells = assay: MCF7 cell viability, MTS assay, 50 μM; format: cell-based; conditions: 48 h; for effect on viability when preilluminated: preilluminated (380 or 550 nm)
Protocol: as §1, §2, §3, §4
(§5) Viability of HeLa, MCF7, and […] cells was determined with a CellTiter 96 assay (Promega), according to the manufacturer’s instructions. Briefly, 20 μL of CellTiter 96 reagent was added to each well, the plates were incubated at 37 °C for 2 h, and the absorbance at 490 nm was recorded. Viability is expressed as a percentage with respect to the nontreated cells.

HT29 cells = assay: HT29 cell viability, MTS assay, 50 μM; format: cell-based; conditions: 48 h; for effect on viability when preilluminated: preilluminated (380 or 550 nm)
Protocol: as §1, §2, §3, §4, §5

human recombinant HDAC1 = biological target: T1, human recombinant HDAC1 (Homo sapiens, UniProt Q13547); assay: Fluorogenic assay with human recombinant HDAC1, dark or illumination; format: biochemical
T1 construct: purchased BPS Bioscience
Protocol: To study the inhibition of HDAC enzymes by the compounds, we used a fluorogenic assay with human recombinant HDAC1.[32] The enzyme was incubated with an acetylated substrate and each inhibitor for 1 h at room temperature, under either dark or light conditions. We opted for illumination throughout the incubation period to maintain the maximum proportion of cis under light conditions. […] Then, the deacetylated substrate generated a fluorescent coumarin after incubation of the mixture with trypsin at 37 °C for 20 min.
Stock solutions of the compounds were diluted to 1 mM in DMSO and then heated to 60 or 80 °C to obtain solutions with the maximum amount of the trans isomer (dark). […] The 1 mM solutions were then serially diluted with HDAC buffer to 10 times the desired concentration, maintaining DMSO at 10%.
In control wells without the compound, inhibitor, or enzyme, HDAC buffer was added instead. […] Then, 50 μL of the stop solution was added and the plates were incubated at 37 °C for 20 min in the dark. Fluorescence was measured at a λem of 460 nm and a λex of 380 nm. Enzyme activity is expressed as a percentage with respect to the nontreated cells, after subtracting the blank (well with no enzyme and no compound).

HeLa cells = assay: HeLa cell viability, MTS assay, dark or preillumination; format: cell-based; conditions: for pIC50: Homo sapiens, HeLa; for IC50(dark)/IC50(light): Table 5; for viability decreasing to: under illumination
Protocol: We then proceeded to evaluate the effect of the compounds in a viability assay against HeLa cells.
as §2
Stock solutions of the compounds were heated to 60 or 80 °C to obtain solutions with the maximum amount of the trans isomer (dark). […] The solutions were then serially diluted with DMEM to give 20 times the desired final concentration, maintaining DMSO at 10%.
Cells were seeded in 96-well black flat bottom plates with a clear bottom at a density of 5 × 10^3 cells/well (HeLa) or 1 × 10^4 cells/well (MCF7, HT29, and KG1), in a volume of 95 μL.
as §5

[1] = UV–vis spectra and optimal isomerization wavelengths; format: physicochemical; conditions: for λcis (optimal wavelength trans to cis) / λtrans (optimal wavelength cis to trans): UV–vis at 25–50 μM in DMSO, Teleopto plates (Table 1)
Protocol: Ultraviolet–visible (UV–vis) spectra were recorded using a Tecan Spark 20M Multimode Microplate reader. Samples (200 μL of compound solution/well) were prepared at […] in DMSO. Samples were measured between 300 and 800 nm with 2 nm fixed intervals in 96-well transparent plates. Illumination at different wavelengths was performed for 2 min using 96-well LED array plates (LEDA Teleopto) placed below the samples. […] Potencies were measured using a Thorlabs PM100D power energy meter connected with a standard photodiode power sensor (S120VC).

[2] = E/Z composition under light or temperature conditions by HPLC; format: physicochemical
[3] = dark vs 365 or 380 nm (Table 2), fold
[4] = dark, 1 h at room temperature (Table 2), read-out: IC50 dark
[5] = illumination 365 or 380 nm, 1 h at room temperature (Table 2), read-out: IC50 light
[6] = preillumination 380 nm, 48 h, read-out: IC50 light (concentration that reduces cell viability by half)
[7] = UV–vis spectra at 25–50 μM in DMSO (Table 1)
[8] = HPLC at isosbestic point (310–338 nm), 100 μM in DMSO after illumination with λcis (Table 1)
[9] = HPLC at isosbestic point (310–338 nm), 100 μM in DMSO after illumination with λtrans (Table 1)
[10] = continuous illumination 550 nm (Table 4), read-out: IC50 light
[11] = dark (Table 4), read-out: IC50 dark
[12] = preillumination 550 nm, 48 h, read-out: IC50 light (concentration that reduces cell viability by half)
[13] = UV–vis spectra at 25–100 μM in DMSO (Table 3)
[14] = HPLC at isosbestic point (290–336 nm), 100 μM in DMSO after illumination with λcis (Table 3)
[15] = HPLC at isosbestic point (290–336 nm), 100 μM in DMSO after illumination with λtrans (Table 3)

T1 sequence (Q13547 whole entry): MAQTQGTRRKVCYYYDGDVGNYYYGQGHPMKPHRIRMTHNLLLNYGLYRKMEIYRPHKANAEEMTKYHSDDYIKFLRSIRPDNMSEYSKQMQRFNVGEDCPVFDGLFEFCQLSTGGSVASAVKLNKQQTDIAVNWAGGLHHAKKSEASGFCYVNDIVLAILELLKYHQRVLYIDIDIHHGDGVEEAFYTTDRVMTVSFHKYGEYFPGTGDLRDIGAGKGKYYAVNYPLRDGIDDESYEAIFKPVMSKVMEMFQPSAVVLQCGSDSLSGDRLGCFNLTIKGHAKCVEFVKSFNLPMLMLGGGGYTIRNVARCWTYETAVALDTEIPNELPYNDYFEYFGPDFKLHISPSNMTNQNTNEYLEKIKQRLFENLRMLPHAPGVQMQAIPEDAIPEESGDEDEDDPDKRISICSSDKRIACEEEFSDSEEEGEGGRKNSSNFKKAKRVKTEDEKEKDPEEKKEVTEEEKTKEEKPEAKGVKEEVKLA

Row | Structure (SMILES) | effect on viability in the dark (KG1 cells) | effect on viability when preilluminated (KG1 cells) | effect on viability in the dark (MCF7 cells) | effect on viability when preilluminated (MCF7 cells) | effect on viability in the dark (HT29 cells) | effect on viability when preilluminated (HT29 cells) | IC50(dark)/IC50(light) (human recombinant HDAC1; [3]) | pIC50 (human recombinant HDAC1; [4]) | pIC50 (human recombinant HDAC1; [5]) | pIC50 (HeLa cells; [6]) | IC50(dark)/IC50(light) (HeLa cells) | IC50 dark (concentration that reduces cell viability by half) (HeLa cells; dark, 48 h) | viability decreasing to (HeLa cells; 48 h) [%] | λcis (optimal wavelength trans to cis) [1] [nm] | λtrans (optimal wavelength cis to trans) [1] [nm] | λmax trans [1, 7] [nm] | % cis at λcis [2, 8] [%] | % trans at λtrans [2, 9] [%] | IC50(dark)/IC50(light) (human recombinant HDAC1; Table 4) | pIC50 (human recombinant HDAC1; [10]) | other results
1 | COc1ccc(/N=N/c2ccc(/C=C/C(=O)Nc3cc(-c4cccs4)ccc3N)cc2)cc1 [Compound 20, (E)-N-(2-Amino-5-(thiophen-2-yl)phenyl)-3-(4-((E)-(4-methoxyphenyl)diazenyl)phenyl)acrylamide] | little or no effect | significantly reduced the viability | little or no effect | significantly reduced the viability | little or no effect | significantly reduced the viability | >29 | < 5.00 | 6.46 | 5.13 | >14 | no activity | 30 | 380 | 550 | 378 | 63 | 82 | – | – | pIC50 (HeLa cells; preillumination, 24 h, read-out: IC50 (365 nm, 24 h)): 4.89
2 | COc1ccc(/N=N/c2ccc(/C=C/C(=O)Nc3ccccc3N)cc2)cc1 [Compound 11, (E)-N-(2-Aminophenyl)-3-(4-((E)-(4-methoxyphenyl)diazenyl)phenyl)acrylamide] | little or no effect | significantly reduced the viability | little or no effect | significantly reduced the viability | little or no effect | significantly reduced the viability | >50 | < 5.00 | 6.70 | 4.92 | >8.3 | no activity | 30 | 380 | 550 | 378 | 80 | 67 | – | – | stability after multiple cis/trans isomerization cycles ([1]; 25 μM in DMSO, 380–550 nm cycles, 2 min each): stable
3 | COc1cc(F)c(/N=N/c2c(F)cc(/C=C/C(=O)Nc3ccccc3N)cc2F)c(F)c1 [Compound 32a, (E)-N-(2-Aminophenyl)-3-(4-((E)-(2,6-difluoro-4-methoxyphenyl)diazenyl)-3,5-difluorophenyl)acrylamide] | little or no effect | significantly reduced the viability | little or no effect | significantly reduced the viability | little or no effect | significantly reduced the viability | – | – | – | – | >2.7 | – | – | – | – | – | – | – | >5.0 | 5.70 | activity at the highest tested concentration in the dark (human recombinant HDAC1; 10 μM, dark): no or little activity; IC50 under illumination, in words (human recombinant HDAC1; continuous illumination): low micromolar range; pIC50 (human recombinant HDAC1; [11]): < 5.00; pIC50 (HeLa cells; [12]): 4.43; cell death under dark vs light conditions (HeLa cells; in words): inducing cell death only under light conditions; λcis [1, 13]: 550 nm; λmax cis [1, 13]: 434 nm; λmax trans [1, 13]: 358 nm; λtrans [1, 13]: 455 nm; % cis at λcis [2, 14]: 77%; % trans at λtrans [2, 15]: 74%
4 | COc1cc(F)c(/N=N/c2c(F)cc(/C=C/C(=O)NO)cc2F)c(F)c1 [Compound 39, (E)-3-(4-((E)-(2,6-Difluoro-4-methoxyphenyl)diazenyl)-3,5-difluorophenyl)-N-hydroxyacrylamide] | – | – | – | – | – | – | – | – | – | – | 0.52 | – | – | – | – | – | – | – | 2.6 | 7.27 | pIC50 (human recombinant HDAC1; [11]): 6.85; pIC50 (HeLa cells; dark, 48 h, read-out: IC50 dark (concentration that reduces cell viability by half)): 5.17; pIC50 (HeLa cells; [12]): 4.89; λcis [1, 13]: 550 nm; λmax cis [1, 13]: 438 nm; λmax trans [1, 13]: 358 nm; λtrans [1, 13]: 455 nm; % cis at λcis [2, 14]: 72%; % trans at λtrans [2, 15]: 83%
